Measurements from paper PMC4076215, “Nickel(II) Complex of Polyhydroxybenzaldehyde N4-Thiosemicarbazone Exhibits Anti-Inflammatory Activity by Inhibiting NF-κB Transactivation” (PLoS ONE, 2014).
Entries after “also recorded” stand apart in the source; their conditions may differ.

Legend:
[1] = test system: RAW264.7 cells; assay: Cell proliferation (MTT) assay, RAW264.7; conditions: RAW264.7 cells, 48 h treatment
Protocol: A total number of 1.0×10^4 cells per well were seeded into a 96-well plate and incubated overnight at 37°C in 5% CO2. The next day, the cells were treated with a two-fold serial dilution of compounds. MTT assays were performed as described [27]. After 48 h, (4,5-dimethylthiazol-2-yl-2,5-diphenyltetrazoliumbromide) was added at 2 mg/ml. After 3 h of incubation at 37°C in 5% CO2, DMSO was added to dissolve the formazan crystals. The plates were then read in Chameleon multitechnology microplate reader (Hidex, Turku, Finland) at 570 nm absorbance. The ratio of the absorbance of treated cells to the absorbance of DMSO-treated control cells was determined as percentage cell viability.
To examine whether synthesized Ni(II) thiosemicarbazone ligands or Ni(II)-phosphine complexes were cytotoxic, we treated RAW264.7 (leukemic monocyte macrophage) and HeLa S3 (cervical adenocarcinoma) cells with these compounds for 48 h. The cell viability was determined with MTT assays [33].

[2] = ORAC antioxidant assay; type: physicochemical
Protocol: ORAC assay was performed based on reported procedures with slight modifications. Chemicals used such as fluorescein sodium salt, AAPH (2,2′-Azobis(2-methylpropionamidine) dihydrochloride), quercetin dehydrate and trolox ((±)-6-Hydroxy-2,5,7,8-tetramethylchromane-2-carboxylic acid) were purchased from Sigma-Aldrich. Compounds were diluted to a final concentration of 100 µg/ml, with total reaction volume of 200 µl. The assay was performed in a 96-well black microplate, with 25 µl of samples, standard (trolox), blank (solvent/PBS) or positive control (quercetin). Subsequently, 150 µl of working fluorescein solution was added to each well. The plate was incubated at 37°C for at least 5 min. Then, 25 µl of AAPH working solution was then added to the wells to make a total volume of 200 µl. […] Data were collected every 2 min for a duration of 2 h, and were analyzed by calculating the differences of area under fluorescence decay curve (AUC) of samples and blank. The values were expressed as Trolox equivalent (TE).
ROS may amplify inflammatory responses via up-regulation or activation of certain genes/transcription factors, such as NF-κB. […] Therefore, we conducted ORAC assays to investigate the antioxidant capacity of complex 5. The ORAC assay uses peroxyl radical as pro-oxidant and the antioxidant activity is quantified via area under curve (AUC). We included quercetin, a known antioxidant, as a positive control.

[3] = test system: carrageenan-induced paw edema; assay: Carrageenan-induced paw edema mouse model; type: in vivo, C57BL/6 mice; conditions: for Paw size: 1 h after carrageenan, control 7.3±0.8 mm
Protocol: Male C57BL/6 mice at age 8–12 weeks old were from Jackson Laboratories, USA. Mice were administrated intraperitoneally (i.p.) with two different doses of complex 5 (2.5 mg/kg and 5 mg/kg). Negative control groups were i.p. injected with 200 µl of vehicle (50% v/v ethanol). A standard drug 2 mg/kg dexamethasone (Sigma) was included in the study. After 1 h, paw edema was induced by injecting 50 µl of 1% carrageenan (Sigma) through the plantar tissue at the right hind paw of each mouse. The thickness of right paw of each mouse was measured at 1, 3 and 5 h after carrageenan was administered. Four animals per group were tested (n = 4). Quantification of right hind paw thickness were analyzed for statistical significance using Student's t-test. Animals were housed in individually ventilated cages in specific pathogen free facility, Animal Experimental Unit, University of Malaya. All efforts were made to minimize animal suffering and the number of animals used. At the end of the experiment, mice were euthanized by CO2 asphyxiation. Animal work was approved by the Faculty of Medicine Animal Care and Use Committee (FOMIACUC) at University of Malaya and reported according to ARRIVE guidelines.
To test the in vivo inhibitory effect of complex 5 on inflammation, we administrated two doses of complex 5 (2.5 mg/kg and 5.0 mg/kg) into C57BL/6 wild type mice through i.p. injection. For a positive control, we performed i.p. injection of 2.0 mg/kg dexamethasone into the mice. After 1 h, paw edema in the mice was induced by injecting 1% carrageenan to the right hind paw. The paw sizes were measured at 1, 3 and 5 h after edema induction. The edema formation at the mice paw was due to inflammatory response causing the accumulation of histamine, serotonin, prostaglandin and other secreted inflammatory mediators.
Male C57BL/6 mice at age of 8-12 weeks old were non-injected or injected i.p. with 2.5 mg/kg or 5.0 mg/kg complex 5, whereas for positive controls, mice were injected i.p. with 2.0 mg/kg dexamethasone. After 1 h, acute inflammation was induced in the right hind paw of each mice by injecting 50 µl of carrageenan. The size of the paw were measured after (A) 1 h or, (B) 1, 3 and 5 h post carrageenan injection. Shown were mean ±SD (n = 4). Statistical analysis was performed with Student's t-test.

[4] = test system: NF-κB p65 nuclear translocation; assay: NF-κB p65 immunofluorescence staining, LPS-stimulated RAW264.7; type: cell-based; conditions: RAW264.7, 25 µg/ml pre-treatment 4 h, LPS 1 h
Protocol: NF-κB Activation Kits (Thermo Scientific) were used as previously described. Cells were pretreated with compounds for 4 h before being stimulated with lipopolysaccharide (LPS) ortumour necrosis factor α (TNFα) for 1 h. Cells were then fixed and permeabilized before probing with NF-κB p65 antibody for 1 h. Staining solution (containing DyLight 488 Goat Anti-Rabbit and Hoechst dye) was then added and incubated for 1 h. The plate with stained cells was evaluated using a Cellomics ArrayScan HCS Reader (Cellomics, PA, USA). Data were captured, extracted and analyzed with ArrayScan II Data Acquisition and Data Viewer version 3.0 (Cellomics).
NF-κB acts as a central mediator of inflammatory responses and compounds that inhibit NF-κB activation are potential anti-inflammatory agents. To evaluate this, we performed immunofluorescence staining of NF-κB p65. […] In response to LPS stimulation, NF-κB p65 translocated from cytoplasm into the nucleus, implying NF-κB activation (Figure 3). […] Moreover, we observed that complex 6–8 required higher concentration (>50 µg/ml) to elicit similar inhibitory effect (data not shown).
Figure 3 Effect of N4-substituteted thiosemicarbazone complexes on LPS-induced NF-κB nuclear transloction in RAW264.7 macrophage cells. Staining of Hoechst (nucleus) and NF-κB in RAW264.7 cells. […]

[5] = Acute toxicity test in mice; type: in vivo, C57BL/6 mice
Excerpt: Next, we examined the anti-inflammatory effects of complex 5 in a carrageenan-induced paw edema mouse model. We first tested the acute toxicity effect of complex 5 in C57BL/6 mice.

## NC1=[S+][Ni-2]2([P+](c3ccccc3)(c3ccccc3)c3ccccc3)[O]c3c(O)cccc3C=[N+]2N1.[Cl-] [complex 5, {2-[(2-Carbamothiolylhydrazin-1-ylidene-[kappa]2N1,S)methyl]-6-hydroxyphenolato-[kappa]O1}(triphenylphosphine-[kappa]P)nickel(II) chloride]
[1]
  IC50 (cell viability, MTT): 28.63 ± 2.24 µg/mL
[2]
  Antioxidant activity compared to quercetin: low antioxidant activity
  Antioxidant capacity, Trolox equivalent: 10.56±0.17 µM TE per 100 µM
[3]; 2.5 mg/kg i.p.
  Paw size: 5.8±0.4 mm
[3]; 5.0 mg/kg i.p.
  Paw edema formation: obvious reduction; also recorded: effectively reduced
  Paw size: 5.0±0.2 mm
[3]; 3 and 5 h post carrageenan
  Paw edema compared to untreated mice: further reduced
[4]
  Inhibition of LPS-mediated NF-κB p65 nuclear translocation: efficiently inhibited; also recorded: marked inhibition
[5]; 125 mg/kg or 250 mg/kg oral
  Safety judged from renal and liver functional tests: safe for consumption
[5]; 500 mg/kg oral
  Safety judged from renal and liver functional tests: may be cytotoxic to the host
[5]; 14 day observation period
  Acute toxicity observation: no overt abnormalities
[5]; acute toxicity test
  Well tolerated dose: up to 250 mg/kg
